Test results from US12331033B2, “Inhibitors of SARM1” (Disarm Therapeutics, Inc., priority 2020, dated 2025).

Molecular target: SARM1 (ARM-SAM-TIR) (Homo sapiens (Human), UniProt Q6SZW1)
Test: ARM-SAM-TIR SARM1 IC50 assay (NADase activity, NAD+ cleavage, RapidFire MS)
Format: biochemical
Conditions: ARM-SAM-TIR lysate 5 μg/mL, 2 h pre-incubation, 5 μM NAD+, 2 hr room temperature
Experimental: This Example describes an assay of ARM-SAM-TIR NADase activity and use of this assay to measure the efficacy of compounds of Formula I or Formula I′ to block SARM1 mediated NAD+ cleavage. This assay was optimized in such a way as to characterize the efficacy of the compounds in Formula I or Formula I′ to inhibit SARM1 activity and to calculate an IC50 value for each compound. This assay makes use of full length SARM1, which encompasses the ARM, SAM and TIR domains.
NRK1-HEK293T cells were seeded onto 150 cm^2 plates at 20×10^6 cells per plate. The next day, the cells were transfected with 15 μg ARM-SAM-TIR expression plasmid, SEQ ID NO: 1.
The cultures were supplemented with 1 mM NR at time of transfection to minimize toxicity from ARM-SAM-TIR overexpression. Forty-eight hours after transfection, cells were harvested, pelleted by centrifugation at 1,000 rpm (Sorvall ST 16R centrifuge, Thermo Fisher), and washed once with cold PBS (0.01 M phosphate buffered saline NaCl 0.138 M; KCl 0.0027 M; pH 7.4). The cells were resuspended in PBS with protease inhibitors (cOmplete™ protease inhibitor cocktail, Roche product #11873580001) and cell lysates were prepared by sonication (Branson Sonifer 450, output=3, 20 episodes of stroke). The lysates were centrifuged (12,000×g for 10 min at 4° C.) to remove cell debris and the supernatants (containing ARM-SAM-TIR protein) were stored at −80° C. for later use in the in vitro ARM-SAM-TIR NADase assay (see below). Protein concentration was determined by the Bicinchoninic (BCA) method and used to normalize lysate concentrations.
The enzymatic assay was performed in a 384-well polypropylene plate in Dulbecco's PBS buffer in a final assay volume of 20 μL. ARM-SAM-TIR lysate with a final concentration of 5 μg/mL was pre-incubated with the respective compound at 1% DMSO final assay concentration over 2 h at room temperature. The reaction was initiated by addition of 5 μM final assay concentration of NAD+ as substrate. After a 2 hr room temperature incubation, the reaction was terminated with 40 μL of stop solution of 7.5% trichloroactetic acid in acetonitrile. The NAD+ and ADPR concentrations were analyzed by a RapidFire High Throughput Mass Spectrometry System (Agilent Technologies, Santa Clara, Calif.) using an API4000 triple quadrupole mass spectrometer (AB Sciex Framingham, Mass.).

Chain of SARM1 (ARM-SAM-TIR) (Q6SZW1 other isoform, or with tags, fused parts or gaps): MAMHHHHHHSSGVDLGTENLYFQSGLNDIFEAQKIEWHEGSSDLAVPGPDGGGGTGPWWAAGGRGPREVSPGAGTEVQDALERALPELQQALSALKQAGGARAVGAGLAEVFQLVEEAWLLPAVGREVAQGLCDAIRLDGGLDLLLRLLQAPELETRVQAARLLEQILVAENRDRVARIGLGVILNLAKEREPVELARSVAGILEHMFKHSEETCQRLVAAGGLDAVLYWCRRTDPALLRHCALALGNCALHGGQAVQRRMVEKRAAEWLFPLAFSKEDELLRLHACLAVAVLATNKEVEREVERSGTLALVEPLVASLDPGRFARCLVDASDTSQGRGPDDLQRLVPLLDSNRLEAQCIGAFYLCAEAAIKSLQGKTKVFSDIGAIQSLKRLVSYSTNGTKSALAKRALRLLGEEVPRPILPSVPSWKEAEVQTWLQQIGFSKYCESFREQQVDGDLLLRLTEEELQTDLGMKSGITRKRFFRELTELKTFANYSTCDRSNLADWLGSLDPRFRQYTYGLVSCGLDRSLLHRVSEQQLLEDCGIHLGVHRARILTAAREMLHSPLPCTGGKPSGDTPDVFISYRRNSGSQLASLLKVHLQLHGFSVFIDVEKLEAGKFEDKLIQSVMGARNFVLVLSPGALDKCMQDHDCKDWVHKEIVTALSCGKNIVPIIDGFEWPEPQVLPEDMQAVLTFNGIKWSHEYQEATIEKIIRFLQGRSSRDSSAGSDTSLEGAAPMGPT

SMILES | IC50 [µM]
O=C(CCc1ccc(Cl)nc1)Nc1nc(-c2ccncc2)c[nH]1 [Example 1] | < 5
O=C(CCc1ccc(C(F)(F)F)s1)Nc1cc(-c2ccncc2)n[nH]1 [Example 2] | < 5
N[C@@H](Cc1ccc(Cl)cc1)C(=O)Nc1cc(-c2ccncc2)n[nH]1 [Example 3] | < 5
O=C(CNc1ccc(Cl)cc1)Nc1cc(-c2ccncc2)n[nH]1 [Example 4] | < 5
CC(C)(C)OC(=O)N(CC(=O)Nc1cc(-c2ccncc2)n[nH]1)c1ccc(Cl)cc1 [Example 5] | < 5
CN(Cc1ccc(Cl)cc1)C(=O)Nc1cc(-c2ccncc2)n[nH]1 [Example 6] | < 5
O=C(NCc1ccc(Cl)cc1)Nc1cc(-c2ccncc2)n[nH]1 [Example 7] | < 5
[2H]C([2H])(C(=O)Nc1nnc(-c2ccncc2)[nH]1)C([2H])([2H])c1ccc(Cl)nc1 [Example 8] | < 5
[2H]C([2H])(C(=O)Nc1cc(-c2ccncc2)n[nH]1)C([2H])([2H])c1ccc(Cl)nc1 [Example 9] | < 5
O=C(CCc1ccc(Cl)c(Br)c1)Nc1nnc(-c2ccncc2)[nH]1 [Example 10] | < 5
O=C(CCc1ccc(Cl)cc1)Nc1nnc(-c2ccncc2F)[nH]1 [Example 11] | < 5
O=C(CCc1ccc(Cl)s1)Nc1nnc(-c2ccnnc2)[nH]1 [Example 12] | < 5
O=C(CCc1ccc(Cl)c(F)c1)Nc1nnc(-c2ccnnc2)[nH]1 [Example 13] | < 5
O=C(CCc1cccc(F)c1)Nc1cc(-c2ccncc2)n[nH]1 [Example 14] | < 5
O=C(CCc1cccc(F)c1)Nc1nnc(-c2ccncc2)[nH]1 [Example 15] | < 5
O=C(CCc1ccc(F)c(F)c1)Nc1nnc(-c2ccncc2)[nH]1 [Example 16] | < 5
O=C(CCc1ccc(F)c(F)c1)Nc1cc(-c2ccncc2)n[nH]1 [Example 17] | < 5
Cc1c(-c2ccncc2)n[nH]c1NC(=O)CCc1ccc(Cl)cc1 [Example 18] | < 5
O=C(CCc1ccc(Cl)nc1)Nc1cc(-c2ccnnc2)n[nH]1 [Example 19] | < 5
O=C(CCc1ccc(Cl)cc1)Nc1nc(-c2ccncc2)c[nH]1 [Example 20] | < 5
O=C(CCc1ccc(Cl)nc1)Nc1nnc(-c2ccnnc2)[nH]1 [Example 21] | < 5
O=C(Nc1nnc(-c2ccncc2)[nH]1)[C@H]1C[C@H](c2ccc(Cl)cc2)C1 [Example 22] | < 5
O=C(Nc1nnc(-c2ccncc2)[nH]1)[C@H]1C[C@@H](c2ccc(Cl)cc2)C1 [Example 23] | < 5
O=C(CCc1ccc(Cl)s1)Nc1cc(-c2ccnnc2)[nH]n1 [Example 24] | < 5
O=C(CCc1ccc(Cl)cc1)Nc1cc(-c2ccncc2F)n[nH]1 [Example 25] | < 5
O=C(CCc1ccc(Cl)cc1)Nc1cc(-c2ccncn2)n[nH]1 [Example 26] | < 5

SMILES | IC50 [µM]
Cc1c(-c2ccncc2)n[nH]c1NC(=O)CCc1ccc(Cl)nc1 [Example 27] | < 5
Clc1ccc(OCCNc2nnc(-c3ccncc3)[nH]2)cc1 [Example 28] | > 30
O=C(CC1CCOc2cc(Cl)ccc21)Nc1nnc(-c2ccncc2)[nH]1 (centres unmarked) [Example 29] | < 5
O=C(CCc1ccc(C(F)(F)F)cc1)Nc1cc(-c2ccnnc2)n[nH]1 [Example 30] | < 5
Nc1cc(-c2cc(NC(=O)CCc3ccc(Cl)cc3)[nH]n2)ccn1 [Example 31] | < 5
COc1cnccc1-c1nnc(NC(=O)CCc2ccc(Cl)cc2)[nH]1 [Example 32] | < 5
O=C(CCc1ccc(Cl)cc1)Nc1nnc(-c2ccnc(O)c2)[nH]1 [Example 33] | > 30
O=C(CCc1cnc(C(F)(F)F)nc1)Nc1cc(-c2ccncc2)n[nH]1 [Example 34] | < 5
O=C(Cc1c[nH]c2cc(Cl)ccc12)Nc1nnc(-c2ccncc2)[nH]1 [Example 35] | 5 to 15
O=C(CCc1ccc(Cl)cc1Cl)Nc1nnc(-c2ccncc2)[nH]1 [Example 36] | < 5
O=C(CCc1ccc(F)cc1)Nc1cc(-c2ccncc2)n[nH]1 [Example 37] | < 5
O=C(CN1C(=O)COc2cc(Cl)ccc21)Nc1cc(-c2ccncc2)n[nH]1 [Example 38] | > 30
O=C(CN1C(=O)COc2cc(Cl)ccc21)Nc1nnc(-c2ccncc2)[nH]1 [Example 39] | > 30
O=C(CCc1ccc(Cl)cc1)Nc1cc(-c2ccnnc2)[nH]n1 [Example 40] | < 5
Clc1ccc(CCCNc2nnc(-c3ccncc3)[nH]2)cc1 [Example 41] | > 30
Cc1cc(-c2n[nH]c(NC(=O)CCc3ccc(Cl)cc3)n2)ccn1 [Example 42] | > 30
Nc1cc(-c2n[nH]c(NC(=O)CCc3ccc(Cl)cc3)n2)ccn1 [Example 43] | < 5
CCc1ccc(CCC(=O)Nc2nc(-c3ccncc3)n[nH]2)cc1 [Example 44] | < 5
O=C(CCc1ccc(Cl)c(F)c1)Nc1nnc(-c2ccncc2)[nH]1 [Example 45] | < 5
O=C(CCc1ccc(Cl)cc1F)Nc1nnc(-c2ccncc2)[nH]1 [Example 46] | < 5
N#Cc1ccc(CCC(=O)Nc2cc(-c3ccncc3)n[nH]2)cc1 [Example 47] | < 5
O=C(CN1CCOc2cc(Cl)ccc21)Nc1nnc(-c2ccncc2)[nH]1 [Example 48] | < 5
O=C(CCc1ccc2[nH]ncc2c1)Nc1nnc(-c2ccncc2)[nH]1 [Example 49] | > 30
N#Cc1cc(Cl)ccc1CCC(=O)Nc1nnc(-c2ccncc2)[nH]1 [Example 50] | < 5
O=C(CCc1ccc(Cl)cc1)Nc1cc(-c2ccncc2)cnc1O [Example 51] | > 30
CN(C)C(Cc1ccccc1)C(=O)Nc1nnc(-c2ccncc2)[nH]1 (centres unmarked) [Example 52] | > 30

SMILES | IC50 [µM]
O=C(CCc1ccc(Cl)cc1)Nc1nnc(-c2ccnnc2)[nH]1 [Example 53] | < 5
O=C(CCc1ccc(Cl)s1)Nc1cc(-c2ccncc2)[nH]n1 [Example 54] | < 5
O=C(CCc1ccc(Cl)nc1)Nc1cc(-c2ccncc2)[nH]n1 [Example 55] | < 5
N[C@@H](Cc1ccc(Cl)cc1)C(=O)Nc1nnc(-c2ccncc2)[nH]1 [Example 56] | < 5
O=C(CCc1ncc(C(F)(F)F)cn1)Nc1nnc(-c2ccncc2)[nH]1 [Example 57] | 15 to 30
O=C(CC1OCCc2ccccc21)Nc1nnc(-c2ccncc2)[nH]1 (centres unmarked) [Example 58] | 5 to 15
O=C(CCc1ccc(Cl)cc1)Nc1nnc(-c2ccncc2Cl)[nH]1 [Example 59] | < 5
O=C(CCc1ccc(Cl)cc1)Nc1nnc(-c2cncs2)[nH]1 [Example 60] | < 5
O=C(CCc1ccc(Cl)cc1)Nc1nc(-c2ccncc2)ns1 [Example 61] | < 5
O=C(CCc1ccc(C(F)(F)F)cc1)Nc1cc(-c2ccncc2)[nH]n1 [Example 62] | < 5
O=C(CC1CCNc2ccccc21)Nc1nnc(-c2ccncc2)[nH]1 (centres unmarked) [Example 63] | > 30
CC(C)(C)OC(=O)N1CCC(CC(=O)Nc2nnc(-c3ccncc3)[nH]2)c2ccccc21 (centres unmarked) [Example 64] | > 30
O=C(Cc1ccc(Cl)cc1)Nc1nnc(-c2ccncc2)[nH]1 [Example 65] | < 5
O=C(Nc1nnc(-c2ccncc2)[nH]1)C12CC(c3ccccc3)(C1)C2 [Example 66] | < 5
O=C(C[C@@H]1CCc2ccccc21)Nc1nnc(-c2ccncc2)[nH]1 [Example 67] | < 5
O=C(C[C@H]1CCc2ccccc21)Nc1nnc(-c2ccncc2)[nH]1 [Example 68] | 5 to 15
O=C(CNc1ccccc1)Nc1nnc(-c2ccncc2)[nH]1 [Example 69] | 5 to 15
CC(C)(C)OC(=O)N(CC(=O)Nc1nnc(-c2ccncc2)[nH]1)c1ccccc1 [Example 70] | > 30
O=C(C[C@@H]1CCOc2ccccc21)Nc1nnc(-c2ccncc2)[nH]1 [Example 71] | < 5
O=C(C[C@H]1CCOc2ccccc21)Nc1nnc(-c2ccncc2)[nH]1 [Example 72] | < 5
O=C(CC1COCc2ccccc21)Nc1nnc(-c2ccncc2)[nH]1 (centres unmarked) [Example 73] | 5 to 15
O=C(CCc1ccc(O)cc1)Nc1nnc(-c2ccncc2)[nH]1 [Example 74] | > 30
O=C(CCc1ccc(OC(F)F)cc1)Nc1nnc(-c2ccncc2)[nH]1 [Example 75] | < 5
O=C(CN1CCCc2ccccc21)Nc1nnc(-c2ccncc2)[nH]1 [Example 76] | > 30
NS(=O)(=O)c1ccc(CCC(=O)Nc2nnc(-c3ccncc3)[nH]2)cc1 [Example 77] | 15 to 30
